These results are taken from patent publication US11479539B2, “Small molecule modulators of the BTB domain of Keap1” (MedImmune Limited, priority 2017, dated 2022).

Chain of Keap1 (Q14145 whole entry): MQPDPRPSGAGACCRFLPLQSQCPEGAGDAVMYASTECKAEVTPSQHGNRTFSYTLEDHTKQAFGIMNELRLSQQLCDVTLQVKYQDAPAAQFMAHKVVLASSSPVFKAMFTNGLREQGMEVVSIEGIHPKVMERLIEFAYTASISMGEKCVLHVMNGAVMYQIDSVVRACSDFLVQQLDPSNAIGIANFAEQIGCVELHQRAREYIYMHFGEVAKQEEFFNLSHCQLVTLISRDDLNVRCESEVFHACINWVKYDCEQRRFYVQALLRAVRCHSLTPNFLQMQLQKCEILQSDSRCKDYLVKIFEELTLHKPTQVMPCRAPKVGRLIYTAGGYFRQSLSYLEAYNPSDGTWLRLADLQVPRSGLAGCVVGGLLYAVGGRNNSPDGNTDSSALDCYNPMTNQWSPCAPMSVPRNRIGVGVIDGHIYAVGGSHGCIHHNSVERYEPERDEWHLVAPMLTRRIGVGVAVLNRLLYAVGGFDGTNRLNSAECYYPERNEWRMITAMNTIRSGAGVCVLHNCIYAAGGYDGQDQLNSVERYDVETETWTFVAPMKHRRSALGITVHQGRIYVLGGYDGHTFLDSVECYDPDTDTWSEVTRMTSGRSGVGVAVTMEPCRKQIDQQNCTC

This test concerns the target Keap1 (Homo sapiens (Human), UniProt Q14145). The test can be described thus: HEK293 ARE luciferase assay. The class given is cell-based. The conditions noted are these: HEK-293 ARE firefly luciferase transiently transfected cells; 18 h incubation; mean of 1 to 20 individual measurements. The method in brief: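 Keap1 inhibition read as Nrf2-driven luciferase rise: compounds dosed in 10 points up to 100 μM (0.3% DMSO) on HEK-293 ARE luciferase cells, 10,000/well, 18 h at 37 °C, then SteadyGlo luminescence. Scaled between DMSO vehicle and 30 μM tBHQ; values average 1-20 runs.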
The term EC50 denotes the midpoint of the concentration-response curve. Compound `COc1cc(-c2cc(F)cnc2C2(OC)C=C(C#N)C(=O)C(C)(C)C2)c(Cl)cn1` (single isomer, unassigned) [Compound 218, 3-(5′-chloro-5-fluoro-2′-methoxy[3,4′-bipyridin]-2-yl)-3-methoxy-5,5-dimethyl-6-oxocyclohex-1-ene-1-carbonitrile] came in with an EC50 of 23 nM.

Take `COC1(c2ncc(F)cc2-c2cnn3ccccc23)C=C(C#N)C(=O)C(C)(C)C1` (single isomer, unassigned) [Compound 219, 3-[5-fluoro-3-(pyrazolo[1,5-a]pyridin-3-yl)pyridin-2-yl]-3-methoxy-5,5-dimethyl-6-oxocyclohex-1-ene-1-carbonitrile]: it took 5 nM to reach a half-maximal effect (EC50). Compound `COC1(c2ncc(F)cc2-c2ccnnc2)C=C(C#N)C(=O)C(C)(C)C1` (single isomer, unassigned) [Compound 220, 3-[5-fluoro-3-(pyridazin-4-yl)pyridin-2-yl]-3-methoxy-5,5-dimethyl-6-oxocyclohex-1-ene-1-carbonitrile] gave a concentration giving a half-maximal response (EC50) of 10 nM. The compound `COC1(c2ncc(F)cc2-c2cncc(S(=O)(=O)C(C)C)c2)C=C(C#N)C(=O)C(C)(C)C1` (single isomer, unassigned) [Compound 221, 3-{5-fluoro-5′-[(propan-2-yl)sulfonyl][3,3′-bipyridin]-2-yl}-3-methoxy-5,5-dimethyl-6-oxocyclohex-1-ene-1-carbonitrile] had an EC50 of 8 nM. The result for `COC1(c2ncc(F)cc2-c2cncc(C(C)(C)C#N)c2)C=C(C#N)C(=O)C(C)(C)C1` (single isomer, unassigned) [Compound 222, 3-[5′-(2-cyanopropan-2-yl)-5-fluoro[3,3′-bipyridin]-2-yl]-3-methoxy-5,5-dimethyl-6-oxocyclohex-1-ene-1-carbonitrile] reads 6 nM.

On to `COC1(c2ncc(F)cc2-c2cncc(OC(F)F)c2)C=C(C#N)C(=O)C(C)(C)C1` (single isomer, unassigned) [Compound 223, 3-[5′-(difluoromethoxy)-5-fluoro[3,3′-bipyridin]-2-yl]-3-methoxy-5,5-dimethyl-6-oxocyclohex-1-ene-1-carbonitrile], for which the midpoint of the response, the EC50, lay at 14 nM.

Turning to `COC1(c2ncc(F)cc2Cl)C=C(C#N)C(=O)C(C)(C)C1` (single isomer, unassigned) [Compound 224, 3-(3-chloro-5-fluoropyridin-2-yl)-3-methoxy-5,5-dimethyl-6-oxocyclohex-1-ene-1-carbonitrile], the half-maximal effective concentration (EC50) was 14 nM. The compound `COC1(c2ncc(Cl)cc2Cl)C=C(C#N)C(=O)C(C)(C)C1` (single isomer, unassigned) [Compound 225, 3-(3,5-dichloropyridin-2-yl)-3-methoxy-5,5-dimethyl-6-oxocyclohex-1-ene-1-carbonitrile] had an EC50 of 12 nM. Regarding `COC1(c2ncc(F)cc2-c2ccc3nccn3c2)C=C(C#N)C(=O)C(C)(C)C1` (single isomer, unassigned) [Compound 226, 3-[5-fluoro-3-(imidazo[1,2-a]pyridin-6-yl)pyridin-2-yl]-3-methoxy-5,5-dimethyl-6-oxocyclohex-1-ene-1-carbonitrile], the EC50 turned out to be 13 nM. `COC1(c2ncc(F)cc2-c2cncc(C(=O)N(C)C)c2)C=C(C#N)C(=O)C(C)(C)C1` (single isomer, unassigned) [Compound 227, 2′-(3-cyano-1-methoxy-5,5-dimethyl-4-oxocyclohex-2-en-1-yl)-5′-fluoro-N,N-dimethyl[3,3′-bipyridine]-5-carboxamide] showed a concentration for a half-maximal effect (EC50) of 15 nM. In the case of `COC1(c2ncc(F)cc2-c2cnn(CC(F)(F)F)c2)C=C(C#N)C(=O)C(C)(C)C1` (single isomer, unassigned) [Compound 228, 3-{5-fluoro-3-[1-(2,2,2-trifluoroethyl)-1H-pyrazol-4-yl]pyridin-2-yl}-3-methoxy-5,5-dimethyl-6-oxocyclohex-1-ene-1-carbonitrile], the midpoint of the response, the EC50, lay at 15 nM.

`COC1(c2ncc(F)cc2-c2ccn3nc(C)nc3c2)C=C(C#N)C(=O)C(C)(C)C1` (single isomer, unassigned) [Compound 229, 3-[5-fluoro-3-(2-methyl[1,2,4]triazolo[1,5-a]pyridin-7-yl)pyridin-2-yl]-3-methoxy-5,5-dimethyl-6-oxocyclohex-1-ene-1-carbonitrile]: the EC50 stood at 10 nM. The result for `COC1(c2ncc(F)cc2-c2cnc(C)c(F)c2)C=C(C#N)C(=O)C(C)(C)C1` (single isomer, unassigned) [Compound 230, 3-(5,5′-difluoro-6′-methyl[3,3′-bipyridin]-2-yl)-3-methoxy-5,5-dimethyl-6-oxocyclohex-1-ene-1-carbonitrile] reads 16 nM; that for `COC1(c2ncc(F)cc2-c2cnn3c2CCC3)C=C(C#N)C(=O)C(C)(C)C1` (single isomer, unassigned) [Compound 231, 3-[3-(5,6-dihydro-4H-pyrrolo[1,2-v]pyrazol-3-yl)-5-fluoropyridin-2-yl]-3-methoxy-5,5-dimethyl-6-oxocyclohex-1-ene-1-carbonitrile], 16 nM.

Compound `COC1(c2ncc(F)cc2-c2cncc(C3CC3)c2)C=C(C#N)C(=O)C(C)(C)C1` (single isomer, unassigned) [Compound 232, 3-(5′-cyclopropyl-5-fluoro[3,3′-bipyridin]-2-yl)-3-methoxy-5,5-dimethyl-6-oxocyclohex-1-ene-1-carbonitrile] had an EC50 of 23 nM. The compound `CCc1cncc(-c2cc(F)cnc2C2(OC)C=C(C#N)C(=O)C(C)(C)C2)c1` (single isomer, unassigned) [Compound 233, 3-(5′-ethyl-5-fluoro[3,3′-bipyridin]-2-yl)-3-methoxy-5,5-dimethyl-6-oxocyclohex-1-ene-1-carbonitrile] had a half-maximal effective concentration (EC50) of 6 nM. Under `COc1ncc(C)cc1-c1cc(F)cnc1C1(OC)C=C(C#N)C(=O)C(C)(C)C1` (single isomer, unassigned) [Compound 234, 3-(5-fluoro-2′-methoxy-5′-methyl[3,3′-bipyridin]-2-yl)-3-methoxy-5,5-dimethyl-6-oxocyclohex-1-ene-1-carbonitrile] stands 9 nM; under `COC1(c2ncc(F)cc2-c2cncc(S(C)(=O)=O)c2)C=C(C#N)C(=O)C(C)(C)C1` (single isomer, unassigned) [Compound 235, 3-[5-fluoro-5′-(methylsulfonyl)[3,3′-bipyridin]-2-yl)-3-methoxy-5,5-dimethyl-6-oxocyclohex-1-ene-1-carbonitrile], 79 nM; under `COC1(c2ncc(F)cc2-c2ccnc(C(F)(F)F)c2)C=C(C#N)C(=O)C(C)(C)C1` (single isomer, unassigned) [Compound 236, 3-[5-fluoro-2′-(trifluoromethyl)[3,4′-bipyridin]-2-yl]-3-methoxy-5,5-dimethyl-6-oxocyclohex-1-ene-1-carbonitrile], 17 nM.

In turn, `COc1cncc(-c2cc(F)cnc2C2(OC)C=C(C#N)C(=O)C(C)(C)C2)c1` (single isomer, unassigned) [Compound 237, 3-(5-fluoro-5′-methoxy[3,3′-bipyridin]-2-yl)-3-methoxy-5,5-dimethyl-6-oxocyclohex-1-ene-1-carbonitrile] came in with an EC50 of 20 nM.

Consider `COC1(c2ncc(Cl)cc2C(F)F)C=C(C#N)C(=O)C2(CC2)C1` (single isomer, unassigned) [Compound 238, 7-[5-chloro-3-(difluoromethyl)pyridin-2-yl]-7-methoxy-4-oxospiro[2.5]oct-5-ene-5-carbonitrile], for which the EC50 was 44 nM.
